Our source for the EC80 values is patent EP4197333A1, “METHOD FOR C[…] RESISTANT PESTS & COMPOUNDS THEREFOR” (Syngenta Crop Protection AG, priority 2021, dated 2023).

This test relates to sensitive Plutella strain. The test is described as follows: Control of sensitive Plutella strain. The class given is in vivo. The conditions noted are these: 80% control, on average, read-out: concentration controlling the sensitive Plutella strain at 80%.

In brackets after ≈: the same amount, converted by molar mass.

Regarding `CNC(=O)c1cc(Cl)cc(C)c1NC(=O)c1cc(Br)nn1-c1ncccc1Cl` [chlorantraniliprole], the EC80 is 0.25 µg/mL (≈ 0.517 µM).
